One series deals with T1, hMAO-A (Homo sapiens, UniProt P21397).
T1 sequence (P21397 1-527): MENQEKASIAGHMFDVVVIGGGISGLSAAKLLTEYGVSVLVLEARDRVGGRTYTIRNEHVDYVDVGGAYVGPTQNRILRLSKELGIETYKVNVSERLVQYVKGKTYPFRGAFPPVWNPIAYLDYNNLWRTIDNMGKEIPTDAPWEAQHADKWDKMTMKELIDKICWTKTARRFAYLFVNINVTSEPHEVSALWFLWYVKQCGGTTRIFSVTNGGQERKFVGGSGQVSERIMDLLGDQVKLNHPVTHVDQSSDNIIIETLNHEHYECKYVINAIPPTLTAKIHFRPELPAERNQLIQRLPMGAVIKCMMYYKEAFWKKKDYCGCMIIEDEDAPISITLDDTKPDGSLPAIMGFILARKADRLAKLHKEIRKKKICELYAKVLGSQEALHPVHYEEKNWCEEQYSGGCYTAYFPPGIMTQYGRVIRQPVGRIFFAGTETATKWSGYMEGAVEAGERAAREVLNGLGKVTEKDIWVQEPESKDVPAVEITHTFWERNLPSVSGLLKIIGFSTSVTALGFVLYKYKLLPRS
The series can be described thus: hMAO-A inhibition, Amplex Red MAO assay, recombinant enzyme.

The target in another series is T2, hMAO-B (Homo sapiens, UniProt P27338).
T2 sequence (P27338 1-520): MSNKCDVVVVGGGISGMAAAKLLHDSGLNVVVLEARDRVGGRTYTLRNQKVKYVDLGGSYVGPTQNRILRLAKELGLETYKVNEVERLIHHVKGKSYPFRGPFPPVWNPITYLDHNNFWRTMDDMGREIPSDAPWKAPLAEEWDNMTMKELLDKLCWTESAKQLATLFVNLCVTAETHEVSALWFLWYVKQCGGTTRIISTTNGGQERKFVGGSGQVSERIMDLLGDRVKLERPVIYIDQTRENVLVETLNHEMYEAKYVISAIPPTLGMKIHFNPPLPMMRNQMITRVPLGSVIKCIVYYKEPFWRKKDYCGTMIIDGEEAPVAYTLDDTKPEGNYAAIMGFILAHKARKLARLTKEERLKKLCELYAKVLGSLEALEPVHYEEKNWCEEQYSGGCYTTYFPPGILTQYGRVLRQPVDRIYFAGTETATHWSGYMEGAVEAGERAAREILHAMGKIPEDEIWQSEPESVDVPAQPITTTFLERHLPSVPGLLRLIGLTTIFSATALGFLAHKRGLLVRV
The series can be described thus: hMAO-B inhibition, Amplex Red MAO assay, recombinant enzyme.

In the next series the test system is MAO-B. On the set-up: pIC50 MAO-B: unit not given here. To be noted: cited from earlier work; for MAO-B pIC50: data set compounds.
The subject of another series is MAO-A. To be noted: cited from earlier work; for pIC50 MAO-A: Table S8; for MAO-A pIC50: data set compounds.

The values that follow come from article PMC8838197, “Coumarin-Resveratrol-Inspired Hybrids as Monoamine Oxidase B Inhibitors: 3-Phenylcoumarin versus trans-6-Styrylcoumarin” (Molecules, 2022).

Structures are written as SMILES. Where “and” joins values, the source holds several entries; their conditions need not be identical. Equal entries are not always repeated. Where two headings read alike, the source gives them in different places. Bounds are passed on as bounds.

One may read the IC50 as the concentration at which inhibition is half-maximal. By melting point is commonly meant the temperature of the solid-liquid transition.

Regarding `O=c1oc2ccccc2cc1-c1ccccc1` [3-Phenylcoumarin], the half-inhibitory concentration (IC50) was greater than 100 µM at hMAO-A and 11.8 µM on hMAO-B (read-out: IC50 hMAO-B, recombinant hMAO-B expressed in baculovirus-infected BTI insect cells, n = 5). Further, on hMAO-B, the “S.I. (hMAO-B selectivity index = IC50 (hMAO-A)/IC50 (hMAO-B))” value is recorded as greater than 8.47. The “pIC50 MAO-B Exp.” value on hMAO-B (Table 3) is reported as 4.928.
As for `COc1cc(-c2cc3cc(C)cc(Br)c3oc2=O)cc(OC)c1OC` [Compound 11], the “pIC50 MAO-B” value in the series with MAO-B (Table S8) is given as 5.311. In the series with MAO-A, the “pIC50 MAO-A” value is reported as 4.506 and the “MAO-A pIC50” value is less than 5.0.
Regarding `Cc1ccc(-c2cc3cc(O)ccc3oc2=O)cc1` [Compound 14], in the series on MAO-B (Table S8), the “pIC50 MAO-B” value is on record as 7.173. Further, the “pIC50 MAO-A” value in the series on MAO-A is 4.604.
For `Cc1ccc2oc(=O)c(-c3cccc(O)c3)cc2c1` [Compound 23], in the series with MAO-B (Table S8), the “pIC50 MAO-B” value is 6.187. Moreover, the “pIC50 MAO-A” value with MAO-A is given as 4.455.
`Cc1ccc2oc(=O)c(-c3ccccc3O)cc2c1` [Compound 24]: the “pIC50 MAO-B” value in the series on MAO-B (Table S8) is on record as 6.921. For the same molecule, in the series on MAO-B, the “MAO-B pIC50” value is > 6.5 and < 6.5. Also, the “pIC50 MAO-A” value with MAO-A is 4.666.
As to `COc1ccc(-c2cc3cccc(C)c3oc2=O)cc1` [Compound 37], the “pIC50 MAO-B” value with MAO-B (Table S8) is 8.465. Further, in the series on MAO-A, the “pIC50 MAO-A” value was 4.666 and the “MAO-A pIC50” value was less than 5.0.
`Cc1ccc(C(=O)Nc2cc3cc(C)ccc3oc2=O)cc1` [Compound 41]: the “pIC50 MAO-B” value in the series with MAO-B (Table S8) was 6.77. The “pIC50 MAO-A” value with MAO-A was 4.337.
As for `COc1ccc(-c2cc3cc([N+](=O)[O-])ccc3oc2=O)cc1` [Compound 54], the “pIC50 MAO-B” value in the series on MAO-B (Table S8) was 8.523. The “pIC50 MAO-A” value in the series with MAO-A is given as 5.932.
Consider `COc1ccc(-c2cc3cccc(OC)c3oc2=O)cc1` [Compound 55], for which, in the series on MAO-A, the “MAO-A pIC50” value is given as less than 5.0.
With `O=c1oc2ccc(O)cc2cc1-c1ccccc1` [Compound 63], the “pIC50 MAO-B” value in the series with MAO-B (Table S8) is 5.47. Also, the “pIC50 MAO-A” value with MAO-A is reported as 4.524.
Take `O=c1oc2ccc(O)cc2cc1-c1ccc(Br)cc1` [Compound 68]: the “pIC50 MAO-B” value in the series with MAO-B (Table S8) was 7.495. Moreover, the “pIC50 MAO-A” value with MAO-A is given as 4.892.
For the molecule `O=c1oc2ccc(OC3CCCC3)cc2cc1-c1cccc(Br)c1` [Compound 72], the “pIC50 MAO-B” value with MAO-B (Table S8) was 5.747. In addition, in the series on MAO-A, the “pIC50 MAO-A” value is reported as 4.354 and the “MAO-A pIC50” value was less than 5.0.
With `O=C(O)COc1ccc2oc(=O)c(-c3ccc(Br)cc3)cc2c1` [Compound 73], the “pIC50 MAO-B” value in the series on MAO-B (Table S8) is listed as 8.154. In addition, in the series on MAO-B, the “MAO-B pIC50” value was greater than 6.5. Moreover, in the series with MAO-A, the “pIC50 MAO-A” value is 4.898 and the “MAO-A pIC50” value is recorded as less than 5.0.
As for `O=c1oc2ccc3ccccc3c2cc1-c1ccc(O)cc1` [Compound 81], the “pIC50 MAO-B” value in the series with MAO-B (Table S8) is recorded as 6.337. Moreover, the “pIC50 MAO-A” value in the series with MAO-A was 4.626.
For the molecule `O=c1oc2ccc3ccccc3c2cc1-c1cccc(O)c1` [Compound 82], the “pIC50 MAO-B” value in the series with MAO-B (Table S8) is on record as 5.296. Also, the “pIC50 MAO-A” value in the series with MAO-A is on record as 4.591. For the same molecule, the “Experimental pIC50 (MAO-A inhibitors)” value in the series on MAO-A (Table S12) was 4.354.
As to `Cc1ccc2oc(=O)c(-c3ccc([N+](=O)[O-])cc3)cc2c1` [Compound 88], the “pIC50 MAO-B” value in the series with MAO-B (Table S8) is reported as 8.678. The “pIC50 MAO-A” value with MAO-A is 5.379.
With `O=c1oc2c(O)cccc2cc1-c1ccsc1` [Compound 142], the “pIC50 MAO-A” value in the series with MAO-A was 4.754.
With `O=c1oc2cc(O)ccc2cc1-c1ccsc1` [Compound 143], the “pIC50 MAO-B” value in the series on MAO-B (Table S8) is listed as 5.071. The “pIC50 MAO-A” value with MAO-A is 5.118.
For `O=c1oc2c(O)c(O)ccc2cc1-c1ccsc1` [Compound 144], the “pIC50 MAO-B” value with MAO-B (Table S8) is given as 5.323. Also, the “pIC50 MAO-A” value in the series on MAO-A is on record as 5.879.
`O=c1oc2c(O)cccc2cc1-c1cc(Br)cs1` [Compound 145]: the “pIC50 MAO-A” value in the series on MAO-A was 5.207.
Take `O=c1oc2cc(O)ccc2cc1-c1cc(Br)cs1` [Compound 146]: in the series on MAO-B (Table S8), the “pIC50 MAO-B” value is on record as 6.854. In addition, the “pIC50 MAO-A” value in the series on MAO-A was 5.038.
Consider `O=c1oc2c(O)c(O)ccc2cc1-c1cc(Br)cs1` [Compound 147], for which the “pIC50 MAO-B” value with MAO-B (Table S8) is reported as 4.663. In addition, the “pIC50 MAO-A” value in the series on MAO-A is 5.216.
For `CC(=O)Nc1ccc2c(C)cc(=O)oc2c1` [Compound 153], the “pIC50 MAO-A” value with MAO-A was 4.59.
As for `CCC(=O)Nc1ccc2c(C)cc(=O)oc2c1` [Compound 154], the “pIC50 MAO-A” value in the series on MAO-A is listed as 4.015.
With `Cc1cc(=O)oc2cc(NC(=O)C(C)C)ccc12` [Compound 155], the “pIC50 MAO-B” value with MAO-B (Table S8) is 4.937. Besides, the “pIC50 MAO-A” value in the series on MAO-A is given as 4.611.
`Cc1cc(=O)oc2cc(NC(=O)CC(C)C)ccc12` [Compound 156]: in the series on MAO-B (Table S8), the “pIC50 MAO-B” value was 6.357. Besides, the “pIC50 MAO-A” value with MAO-A is on record as 4.339.
In the case of `Cc1cc(=O)oc2cc(NC(=O)CBr)ccc12` [Compound 158], in the series with MAO-B (Table S8), the “IC50 MAO-B” value is recorded as “In” and the “pIC50 MAO-B” value is given as “In”. For the same molecule, in the series with MAO-A, the “pIC50 MAO-A” value is 4.107 and the “MAO-A pIC50” value is given as less than 5.0.
For `Cc1ccc(C(=O)Nc2ccc3c(C)cc(=O)oc3c2)cc1` [Compound 160], the “pIC50 MAO-B” value in the series with MAO-B (Table S8) is on record as 6.046.
On to `Cc1cc(=O)oc2cc(NC(=O)c3ccc(Cl)cc3)ccc12` [Compound 161], for which, in the series on MAO-B (Table S8), the “pIC50 MAO-B” value was 6.509.
For the molecule `Cc1cc(=O)oc2cc(NC(=O)c3cccs3)ccc12` [Compound 162], in the series on MAO-B (Table S8), the “pIC50 MAO-B” value was 5.799.
In the case of `Cc1cc(=O)oc2cc(NC(=O)c3ccco3)ccc12` [Compound 163], the “pIC50 MAO-B” value with MAO-B (Table S8) is given as 5.3. Further, in the series with MAO-A, the “pIC50 MAO-A” value is 4.521 and the “MAO-A pIC50” value was less than 5.0.
As to `O=c1ccc2cc(/C=C/c3ccccc3)ccc2o1` [trans-6-Styrylcoumarin], the melting point was 134 to 135 °C. In addition, at hMAO-A, the 50% inhibitory concentration (IC50) was greater than 100 µM. Besides, on hMAO-B, the IC50 is 0.11 µM and the “S.I. (hMAO-B selectivity index = IC50 (hMAO-A)/IC50 (hMAO-B))” value is given as greater than 909.09. The “times more active on MAO-B than the best compound of the resveratrol derivative series of Kong et al.” value at hMAO-B (comparison with ref 13) amounted to 110. Moreover, on hMAO-B (ratio of IC50), the “times more active on MAO-B than 3-phenylcoumarin” value amounted to 107 and the “times more active on MAO-B than trans-resveratrol” value amounted to 267.
